Measurements as given in US5409946A, “Isoxazole, isothiazole and pyrazole compounds that enhance cognitive function” (Abbott Laboratories, priority 1993, dated 1995).
“Also recorded” adds a separate entry of the source.

Tests used:
spike wave discharges = assay: Attenuation of petit mal absence-like spike wave discharges (EEG); format: in vivo, male Wistar rats; details: for Total spike wave duration: p < 0.05
Description: Animals: Male albino rats of the Wistar strain (CAMM Research) were maintained on a 12:12 hour light-dark cycle and individually housed throughout these experiments. They were fed standard rodent diet with food and water provided ad libitum.
EEG Recordings: To record spike wave discharges, rats were surgically implanted with permanently affixed EEG electrodes over the frontal codex using previously described techniques (Radek, Brain Res., 1993, in press). After at least a ten day recovery from this surgery, EEG recordings were made inside darkened sound attenuating chambers. Rats were allowed to move freely within the chambers and computerized activity monitors recorded animal motion during these studies. Only those rats that express spike wave discharges, as identified from preliminary recordings, were used to test the effects of nicotinic agents.
Drug studies: EEG recordings were obtained from each rat for a period of 20 minutes of total waking immobility immediately after administration of drug, or a drug-free control solution. Immobility was characterized as the absence of infrared beam interruptions from the activity monitor system. Spike wave activity was identified as regular 6-10 Hz complexes with amplitudes of 0.4 to 1.0 mV. The total spindling duration for 20 minutes of waking immobility was calculated by determining the length (in seconds) of each spike wave burst, and adding each of these times together to obtain a total spindle time for the recording session. Each rat was administered the control solution and one or two doses of the test compounds and each dosing was given at least 48 hours after the previous treatment.
The compound of Example 2 was dissolved in saline to the desired concentration.

[1] = test system: retention of the avoidance response; assay: Inhibitory avoidance test; format: in vivo
Description: The inhibitory (or sometimes called passive) avoidance (IA) test is a well-accepted animal model for learning/memory and is widely used to assess the activity of novel cognition enhancers in enhancing cognitive function (Wanibuchi et al., Eur. J. Pharmacol., 1990, 187:479). According to this test, animals are placed in the illuminated (12×14×11 cm) portion of a two-chambered box, from which they enter through a guillotine door to the larger (24×13.5×12 cm) dark compartment of the box. Entry to the dark compartment is accompanied by a mild (0.35 mA), brief (2 seconds) footshock. Initial latencies to cross are recorded, with an imposed 60 second ceiling. Following a 24 hour retention interval, animals are returned to the illuminated chamber, and latency to return to the dark compartment is again recorded, with a ceiling of 180 seconds. No footshock is administered on the test day.
Twelve animals were used in each group.

muscarinic receptors = format: binding, rat; details: Table 2
Description: The potencies of ligand binding at central muscarinic binding sites were determined by analysis of competition with the specific muscarinic receptor radioligand [^3 H]-quinuclidinyl benzilate ([^3 H]-QNB). […] Competition between various concentrations of putative nicotinic ligand compounds and 0.2 nM [^3 H]-QNB was performed at 25° C. in an assay volume of 1 mL. After 75 minutes, the bound radioligand was separated by vacuum filtration on Whatman GF/B glass fiber filters. Non-specific binding was defined as radioactivity remaining in the presence of 10 μM atropine. Competition curves were analyzed for Ki values as described above for binding to the nicotinic receptor.

[2] = test system: neuronal nicotinic cholinergic channels in PC12 cells; assay: Cholinergic channel activator action in PC12 cells, whole-cell patch-clamp; format: cell-based, rat; details: PC12 cells; mean ± S.E.M.
Description: Electrophysiologic recordings were obtained from differentiated (neurite-bearing) cells after 4-7 days exposure to NGF. […] After 20 minutes, differentiating medium was added (DMEM containing 100 ng/ml nerve growth factor, 5% heat-inactivated fetal calf serum and 2.5% heat-inactivated horse serum) and the cells were refed with this medium every 3 days.
The intracellular (recording pipette) solution consisted of 140 mM KCl, 1.0 mM CaCl2, 2.0 mM MgCl2, 11 mM K-EGTA, and 10 mM K-HEPES buffer (7.3 pH, 315 mOsm). Osmolarities were adjusted using dextrose such that the extracellular solution was 10 mOsm hypertonic compared to the intracellular solution. Voltage-gated inward (sodium) and outward (potassium) currents were monitored throughout the experiment to determine establishment and maintenance of the whole-cell recording configuration.

Structure (SMILES): Cc1cc([C@@H]2CCCN2C)on1.O=C(O)C(=O)O [Example 2, 3-Methyl-5-(1-methyl-2(S)-pyrrolidinyl)-isoxazole oxalate salt]
- Total spike wave duration (spike wave discharges; Table 8, 1.9 μmol/kg i.p.): 26.7 ± 9.2 s
- Total spike wave duration (spike wave discharges; Table 8, 6.2 μmol/kg i.p.): 33.1 ± 10.2 s
- Total spike wave duration (spike wave discharges; Table 9, 10 μmol/kg p.o.): 25.6 ± 7.5 s
- Total spike wave duration (spike wave discharges; Table 11, 6.2 μmol/kg i.p.): 8.2 ± 3.8 s
- effect on incidence of spike wave discharges (spike wave discharges; i.p., 20 min waking immobility, p<0.05 where significant): significantly lowered the incidence of spike wave discharges
- effect on incidence of spike wave discharges (spike wave discharges; oral, 10.0 μmol/kg, p<0.05): significantly lowered the incidence of spike wave discharges
- equally efficacious at fraction of the dose of (-)-nicotine in IA ([1]; dose relative to (-)-nicotine): 1/17
- Inhibitory Avoidance (IA) result ([1]; i.p. 15 min before training, retention at 24 h, p<0.05, oxalate salt): significantly facilitated the retention of the avoidance response; also recorded: significant
- Ki (muscarinic receptors): 160 µM
- EC50 [2]: 209 ± 76 µM
